Source: US20100216802A1, “PTERIDINE DERIVATIVES AS POLO-LIKE KINASE INHIBITORS USEFUL IN THE TREATMENT OF CANCER” (CHROMA THERAPEUTICS LTD., priority 2006, published 2010)

Columns and labels:
[1] = molecular target: T1, PLK1 (Homo sapiens, UniProt P53350); experiment: PLK1 enzyme assay (Z'-LYTE, Invitrogen); type: biochemical; conditions: ATP at or close to Km; read-out: Inhibitor Activity vs PLK1
T1 construct: purchased Invitrogen (Paisley, UK)
Protocol: The ability of compounds to inhibit PLK-1 kinase activity was measured in an assay performed by Invitrogen (Paisley, UK). The Z′-LYTE™ biochemical assay employs a fluorescence-based, coupled-enzyme format and is based on the differential sensitivity of phosphorylated and non-phosphorylated peptides to proteolytic cleavage. The peptide substrate is labelled with two fluorophores—one at each end—that make up a FRET pair. In the primary reaction, the kinase transfers the gamma-phosphate of ATP to a single serine or threonine residue in a synthetic FRET-peptide. In the secondary reaction, a site-specific protease recognizes and cleaves non-phosphorylated FRET-peptides. Phosphorylation of FRET-peptides suppresses cleavage by the Development Reagent. Cleavage disrupts FRET between the donor (i.e., coumarin) and acceptor (i.e., fluorescein) fluorophores on the FRET-peptide, whereas uncleaved, phosphorylated FRET-peptides maintain FRET. A […] method, which calculates the ratio (the Emission Ratio) of donor emission to acceptor emission after excitation of the donor fluorophore at 400 nm, is used to quantitate reaction progress.
The assay is performed at an ATP concentration at, or close to, the Km. After the 60 minute Kinase Reaction incubation at RT, 5 μL of a 1:8 dilution of Development Reagent is added. The assay plate is incubated for a further 60 minutes at RT and read on a fluorescence plate reader.
Duplicate data points are generated from a ⅓ log dilution series of a stock solution of test compound in DMSO. Nine dilutions steps are made from a top concentration of 10 μM, and a ‘no compound’ blank is included. Data is collected and analysed using XLfit software from IDBS.

[2] = tested on: HCT 116 cell line; experiment: Cell inhibition assay method A (WST-1, 120 hrs); type: cell-based; conditions: Homo sapiens, HCT-116, method A, read-out: Inhibitor Activity vs HCT 116 cell line (method A)
Protocol: Cell inhibition assays were carried out using either method A or method B
Cells were seeded in 96W tissue culture plates (1 well=30 mm^2) at a density of […] per well in 50 μL of the appropriate culture medium (see below). 24 hrs later […] of the compound prepared in the same medium was added as 4 fold dilutions to give final concentrations in the range 0.15 nM-2500 nM (n=6 for each concentration). The plates were then incubated at 37° C., 5% CO2 for 120 hrs. Cell proliferation was assessed using WST-1 (a metabolic indicator dye, Roche Cat no. 1 644 807) according to the manufacturers instructions. The results were calculated as percentage of vehicle response and IC50 values represent the concentration of compound that inhibited the vehicle response by 50%.
HCT-116 culture medium —Dulbeccos MEM (Sigma D6546) plus 10% heat inactivated fetal calf serum (Hyclone SH30071 Thermo Fischer Scientific) containing 2 mM Glutamine (Sigma cat no G-7513) and 50 U/ml Penicillin and Streptomycin Sulphate (Sigma Cat no P-0781).

T1 sequence (P53350 whole entry): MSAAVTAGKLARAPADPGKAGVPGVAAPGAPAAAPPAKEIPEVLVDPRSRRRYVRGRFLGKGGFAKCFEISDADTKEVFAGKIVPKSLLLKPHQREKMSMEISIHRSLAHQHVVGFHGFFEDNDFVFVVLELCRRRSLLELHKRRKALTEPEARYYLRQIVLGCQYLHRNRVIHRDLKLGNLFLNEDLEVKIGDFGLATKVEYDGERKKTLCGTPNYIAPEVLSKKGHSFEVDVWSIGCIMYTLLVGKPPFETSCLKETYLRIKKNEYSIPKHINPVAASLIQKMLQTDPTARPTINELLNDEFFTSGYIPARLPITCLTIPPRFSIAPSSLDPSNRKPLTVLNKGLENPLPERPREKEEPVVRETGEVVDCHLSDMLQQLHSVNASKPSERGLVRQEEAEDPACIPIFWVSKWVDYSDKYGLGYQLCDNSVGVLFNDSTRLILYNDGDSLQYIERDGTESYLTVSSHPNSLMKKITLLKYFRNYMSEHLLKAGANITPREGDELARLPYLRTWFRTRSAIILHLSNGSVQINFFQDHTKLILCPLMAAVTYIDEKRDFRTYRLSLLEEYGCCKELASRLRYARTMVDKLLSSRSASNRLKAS

Row | SMILES | IC50 [1] | IC50 [2]
1 | CC[C@@H]1C(=O)N(C)c2cnc(Nc3ccc(OCC[C@H](N)C(=O)OC4CCCC4)cc3)nc2N1C1CCCC1 [Example 3, Cyclopentyl O-(4-{[(7R)-8-cyclopentyl-7-ethyl-5-methyl-6-oxo-5,6,7,8-tetrahydropteridin-2-yl]amino}phenyl)-L-homoserinate] | < 100 nM | 100 to 500 nM
2 | CC[C@@H]1C(=O)N(C)c2cnc(Nc3ccc(OCC[C@H](N)C(=O)OC4CCCC4)cc3OC)nc2N1C1CCCC1 [Example 4, Cyclopentyl O-(4-{[(7R)-8-cyclopentyl-7-ethyl-5-methyl-6-oxo-5,6,7,8-tetrahydropteridin-2-yl]amino}-3-methoxyphenyl)-L-homoserinate] | < 100 nM | < 100 nM
3 | CC[C@@H]1C(=O)N(C)c2cnc(Nc3ccc(C(=O)Nc4ccc(C[C@H](N)C(=O)OC5CCCC5)cc4)cc3OC)nc2N1C1CCCC1 [Example 7, Cyclopentyl 4-[(4-{[(7R)-8-cyclopentyl-7-ethyl-5-methyl-6-oxo-5,6,7,8-tetrahydropteridin-2-yl]amino}-3-methoxybenzoyl)amino]-L-phenylalaninate] | 100 to 500 nM | < 100 nM
4 | CC[C@@H]1C(=O)N(C)c2cnc(Nc3ccc(C(=O)NCc4ccc(OCC[C@H](N)C(=O)OC5CCCC5)cc4)cc3OC)nc2N1C1CCCC1 [Example 9, Cyclopentyl O-(4-{[(4-{[(7R)-8-cyclopentyl-7-ethyl-5-methyl-6-oxo-5,6,7,8-tetrahydropteridin-2-yl]amino}-3-methoxybenzoyl)amino]methyl}phenyl)-L-homoserinate] | 100 to 500 nM | < 100 nM
5 | CC[C@@H]1C(=O)N(C)c2cnc(Nc3ccc(C(=O)Nc4ccc(C[C@H](N)C(=O)OC(C)(C)C)cc4)cc3OC)nc2N1C1CCCC1 [Example 11, tert-Butyl 4-[(4-{[(7R)-8-cyclopentyl-7-ethyl-5-methyl-6-oxo-5,6,7,8-tetrahydropteridin-2-yl]amino}-3-methoxybenzoyl)amino]-L-phenylalaninate] | < 100 nM | 100 to 500 nM
6 | CC[C@@H]1C(=O)N(C)c2cnc(Nc3ccc(C(=O)NCc4ccc(OCC[C@H](N)C(=O)OC(C)(C)C)cc4)cc3OC)nc2N1C1CCCC1 [Example 12] | < 100 nM | < 100 nM
7 | CC[C@@H]1C(=O)N(C)c2cnc(Nc3ccc(C(=O)N4CCNC(C(=O)OC5CCCC5)C4)cc3OC)nc2N1C1CCCC1 (stereo partly drawn) [Example 13, Cyclopentyl 4-(4-{[(7R)-8-cyclopentyl-7-ethyl-5-methyl-6-oxo-5,6,7,8-tetrahydropteridin-2-yl]amino}-3-methoxybenzoyl)piperazine-2-carboxylate] | < 100 nM | 100 to 500 nM
8 | CC[C@@H]1C(=O)N(C)c2cnc(Nc3ccc(C(=O)NCCN4CCNC(C(=O)OC5CCCC5)C4)cc3OC)nc2N1C1CCCC1 (stereo partly drawn) [Example 14, Cyclopentyl 4-{2-[(4-{[(7R)-8-cyclopentyl-7-ethyl-5-methyl-6-oxo-5,6,7,8-tetrahydropteridin-2-yl]amino}-3-methoxybenzoyl)amino]ethyl}piperazine-2-carboxylate] | < 100 nM | < 100 nM
9 | CC[C@@H]1C(=O)N(C)c2cnc(Nc3ccc(C(=O)NCCN4CCNC(C(=O)OC(C)(C)C)C4)cc3OC)nc2N1C1CCCC1 (stereo partly drawn) [Example 15, tert-butyl 4-{2-[(4-{[(7R)-8-cyclopentyl-7-ethyl-5-methyl-6-oxo-5,6,7,8-tetrahydropteridin-2-yl]amino}-3-methoxybenzoyl)amino]ethyl}piperazine-2-carboxylate] | < 100 nM | < 100 nM
10 | CC[C@@H]1C(=O)N(C)c2cnc(Nc3ccc(C(=O)Nc4ccc(CCC[C@H](N)C(=O)OC5CCCC5)cc4)cc3OC)nc2N1C1CCCC1 [Example 19, Cyclopentyl 5-{4-[(4-{[(7R)-8-cyclopentyl-7-ethyl-5-methyl-6-oxo-5,6,7,8-tetrahydro-pteridin-2-yl]amino}-3-methoxybenzoyl)amino]phenyl}-L-norvalinate] | < 100 nM | < 100 nM
11 | CC[C@@H]1C(=O)N(C)c2cnc(Nc3ccc(C(=O)Nc4ccc(/C=C/C[C@H](N)C(=O)OC5CCCC5)cc4)cc3OC)nc2N1C1CCCC1 [Example 20, Cyclopentyl (2S,4E)-2-amino-5-{4-[(4-{[(7R)-8-cyclopentyl-7-ethyl-5-methyl-6-oxo-5,6,7,8-tetrahydropteridin-2-yl]amino}-3-methoxybenzoyl)amino]phenyl}pent-4-enoate] | < 100 nM | < 100 nM
12 | CC[C@@H]1C(=O)N(C)c2cnc(Nc3ccc(C(=O)NC4CCN(CCC[C@H](N)C(=O)OC(C)(C)C)CC4)cc3OC)nc2N1C1CCCC1 [Example 23, tert-butyl 5-{4-[(4-{[(7R)-8-cyclopentyl-7-ethyl-5-methyl-6-oxo-5,6,7,8-tetrahydropteridin-2-yl]amino}-3-methoxybenzoyl)amino]piperidin-1-yl}-L-norvalinate] | < 100 nM | < 100 nM

The next lines start with the values.

Row | IC50 [1] | IC50 [2] | SMILES
13 | < 100 nM | < 100 nM | CC[C@@H]1C(=O)N(C)c2cnc(Nc3ccc(C(=O)NCC[C@H](N)C(=O)OC4CCCC4)cc3OC)nc2N1C1CCCC1 [Example 5, Cyclopentyl (2S)-2-amino-4-[(4-{[(7R)-8-cyclopentyl-7-ethyl-5-methyl-6-oxo-5,6,7,8-tetrahydropteridin-2-yl]amino}-3-methoxybenzoyl)amino]butanoate]
14 | < 100 nM | < 100 nM | CC[C@@H]1C(=O)N(C)c2cnc(Nc3ccc(C(=O)N[C@@H]4CN[C@H](C(=O)OC5CCCC5)C4)cc3OC)nc2N1C1CCCC1 [Example 6, Cyclopentyl (4S)-4-[(4-{[(7R)-8-cyclopentyl-7-ethyl-5-methyl-6-oxo-5,6,7,8-tetrahydropteridin-2-yl]amino}-3-methoxybenzoyl)amino]-L-prolinate]
15 | < 100 nM | < 100 nM | CC[C@@H]1C(=O)N(C)c2cnc(Nc3ccc(C(=O)NCCCC[C@H](N)C(=O)OC4CCCC4)cc3OC)nc2N1C1CCCC1 [Example 8, Cyclopentyl N^6-(4-{[(7R)-8-cyclopentyl-7-ethyl-5-methyl-6-oxo-5,6,7,8-tetrahydropteridin-2-yl]amino}-3-methoxybenzoyl)lysinate]
16 | < 100 nM | < 100 nM | CC[C@@H]1C(=O)N(C)c2cnc(Nc3ccc(C(=O)NCCN4CCC(C[C@H](N)C(=O)OC5CCCC5)CC4)cc3OC)nc2N1C1CCCC1 [Example 10, Cyclopentyl 3-(1-{2-[(4-{[(7R)-8-cyclopentyl-7-ethyl-5-methyl-6-oxo-5,6,7,8-tetrahydropteridin-2-yl]amino}-3-methoxybenzoyl)amino]ethyl}piperidin-4-yl)alaninate]
17 | < 100 nM | < 100 nM | CC[C@@H]1C(=O)N(C)c2cnc(Nc3ccc(C(=O)NC4CCN(CC[C@H](N)C(=O)OC5CCCC5)C4)cc3OC)nc2N1C1CCCC1 (stereo partly shown) [Example 16]
18 | < 100 nM | < 100 nM | CC[C@@H]1C(=O)N(C)c2cnc(Nc3ccc(C(=O)NC4CCN(CC[C@@H](N)C(=O)OC5CCCC5)C4)cc3OC)nc2N1C1CCCC1 (stereo partly drawn) [Example 17, Cyclopentyl (2R)-2-amino-4-{3-[(4-{[(7R)-8-cyclopentyl-7-ethyl-5-methyl-6-oxo-5,6,7,8-tetrahydropteridin-2-yl]amino}-3-methoxybenzoyl)amino]pyrrolidin-1-yl}butanoate]
19 | < 100 nM | < 100 nM | CC[C@@H]1C(=O)N(C)c2cnc(Nc3ccc(C(=O)NC4C5CN(CC[C@H](N)C(=O)OC6CCCC6)CC54)cc3OC)nc2N1C1CCCC1 (stereo partly drawn) [Example 18, Cyclopentyl (2S)-2-amino-4-{6-[(4-{[(7R)-8-cyclopentyl-7-ethyl-5-methyl-6-oxo-5,6,7,8-tetrahydropteridin-2-yl]amino}-3-methoxybenzoyl)amino]-3-azabicyclo[3.1.01]hex-3-yl}butanoate]
20 | < 100 nM | < 100 nM | CC[C@@H]1C(=O)N(C)c2cnc(Nc3ccc(C(=O)NC4CCN(CCC[C@H](N)C(=O)OC5CCCC5)CC4)cc3OC)nc2N1C1CCCC1 [Example 24, Cyclopentyl 5-{4-[(4-{[(7R)-8-cyclopentyl-7-ethyl-5-methyl-6-oxo-5,6,7,8-tetrahydropteridin-2-yl]amino}-3-methoxybenzoyl)amino]piperidin-1-yl}-L-norvalinate]
